Patent US20140128357A1, “METHODS OF PRODUCING AND USING BRASSINOSTEROIDS TO PROMOTE GROWTH, REPAIR AND MAINTENANCE OF SKELETAL MUSCLE AND SKIN” (Rutgers University, priority 2010, published 2014)
pEC50: −log10 of the molar value.

How the values were obtained:
[1] = test system: L6 rat myotubes; experiment: Protein degradation, release of acid-soluble [3H]-phenylalanine; type: cell-based; conditions: 10 μM; for Protein degradation (% decrease over control): 4 h
Procedure: In some aspects, cell culture experiments were carried out. Rat L6 skeletal muscle cell line CRL-1458 was obtained from ATCC (Manassas, Va.). Myoblasts were routinely maintained in Dulbecco's modified Eagle's medium (DMEM) containing 10% FBS and 0.1% penicillin-streptomycin at 37° C. and 5% CO2. Cells were subcultured into 24-well plates for protein synthesis, degradation, and cell viability studies and into 6-well plates for Western blot analyses (Greiner Bio One, Monroe, N.C.). Once cells reached 90% confluence, differentiation was induced by lowering the serum concentration to 2%, and medium was changed every 2 days. […] NIH 3T3 murine embryonic fibroblast cell line (ATCC #CCL-92) was maintained in DMEM and 10% FBS at 37° C. in 5% CO2, and passaged every 3-4 days.
In various aspects, protein degradation is measured to determine the effect of brassinosteroid on a particular protein. All known methods for measuring protein degradation are included in the methods of the disclosure. The effect of brassinosteroids on protein degradation was investigated in fully differentiated myotubes as described by Fawcett et al. (Arch. Biochem. Biophys. 385:357-363, 2001) with slight modifications. Fully differentiated myotubes were incubated for 16 h to allow labeling of cellular proteins with 1.5 μCi/mL [^3H]-phenylalanine. […] The incubation was stopped by placing the cells on ice, and protein in the medium was precipitated with 5% trichloroacetic acid. Specific radioactivity of protein-free phenylalanine was quantified using liquid scintillation counter LS 6500 (Beckman Coulter, Fullerton, Calif.) and normalized to mg of total cell protein determined by BCA protein assay (Pierce Biotechnology, Rockford, Ill.).
The bioactivity of HB and its analogs (as shown in Table 3) were also evaluated by measuring decreases in protein degradation in the L6 rat skeletal muscle cells in vitro. Cells were labeled overnight with [^3H]-phenylalanine and subsequently treated for 4 h in triplicate with vehicle (0.1% ethanol) or test compound (10 μM), and protein degradation was assessed as release of acid-soluble [^3H]-phenylalanine into the media normalized by total protein (Table 3).

[2] = test system: L6 rat myotubes; experiment: Protein synthesis, [3H]-phenylalanine incorporation in myotubes; type: cell-based; conditions: for increase in protein synthesis above control levels: 4 h (FIG. 2A); for Protein synthesis (% increase over control): 4 h; for maximum increases in protein synthesis: dose response 0.3-30 μM (FIG. 8A)
Summary of the method: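 Differentiated L6 rat myotubes (2% serum, 7–9 days) treated in triplicate in serum-free DMEM with compound (10 μM) or 0.1% ethanol vehicle plus 0.5 μCi/mL [3H]-phenylalanine for 4 h. TCA-precipitated protein counted by scintillation, normalised to total protein; IGF-1 6.5 nM positive control.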

Compound	Protein degradation (% decrease over control) [1]	decrease in protein degradation vs control levels ([1]; 4 h (FIG. 2C))	increase in protein synthesis above control levels ([2]; 1 μM)	time at which stimulated protein synthesis peaked ([2]; 3 μM, 1-24 h study)	Protein synthesis (% increase over control) ([2]; 10 μM)	increase in protein synthesis above control levels ([2]; 10 μM)	Protein synthesis (% increase over control) ([2]; 10 μM, listed as HB)	increase in protein synthesis above control levels ([2]; 20 μM)	maximum increases in protein synthesis [2]	pEC50 ([2]; read-out: 50% effective dose for protein synthesis)	Protein synthesis (% increase over control) ([2]; 10 μM, listed as (22S,23S)-homocastasterone)	effect of structural modification on protein degradation activity, in words [1]	effect of structural modification on activation of protein synthesis, in words ([2]; 10 μM)
CC[C@@H](C(C)C)[C@H](O)[C@@H](O)[C@@H](C)[C@H]1CC[C@H]2[C@@H]3COC(=O)[C@H]4C[C@H](O)[C@H](O)C[C@]4(C)[C@H]3CC[C@]12C [Compound 1, (22S,23S,24S)-2α,3α,22,23-tetrahydroxy-24 ethyl-β-homo-7-oxo-5α-cholestane-6-one]	−24.1 ± 5.5 %	9.5±0.9%	12.4±2.3%	3 h	37.2 ± 5.9 %	34.9±3.1%	37.2±5.9%	36.9±2.9%	36.9±2.9%	5.52			
CC[C@@H](C(C)C)[C@H](O)[C@@H](O)[C@@H](C)[C@H]1CC[C@H]2[C@@H]3CC(=O)[C@H]4C[C@H](O)[C@H](O)C[C@]4(C)[C@H]3CC[C@]12C [Compound 2, (22S,23S,24S)-2α,3α, 22,23-tetrahydroxy-24-ethyl-5α-cholestan-6-one]	−23.1 ± 4.2 %				41.0 ± 2.7 %				40.7±4.9%		41.0±2.7%		
CC[C@@H](C(C)C)[C@H](O)[C@@H](O)[C@@H](C)[C@H]1CC[C@H]2[C@@H]3CC(=O)N[C@H]4C[C@H](O)[C@H](O)C[C@]4(C)[C@H]3CC[C@]12C [Compound 5, (22S,23S,24S)-2α,3α-22,23-tetrahydroxy-24-ethyl-B-homo-6-aza-5α-cholestan-7-one]	−13.6 ± 3.8%				3.3 ± 12.4%							only a minor effect on its biological activity	complete loss of activation of protein synthesis
